Target: T1, human histamine-3 receptor (Homo sapiens, UniProt Q9Y5N1)
T1 construct: expressed in transfected cells; host or cells: HEK293 and CHO-K1 (membrane preparation)
Test: Histamine analogue-binding inhibition test ([35S]GTPγS binding, SPA)
Type: biochemical
Settings: for IC50: 50% inhibitory concentration to the specific [35S]GTPγS binding, membrane specimen of histamine-3 receptor expressing cells (HEK293, CHO-K1), 20 nM R-methylhistamine, 25° C., 3 hours; for inhibition of the binding of N-alpha-methylhistamine (histamine analogue) to histamine-H3 receptor: summary in words of the table's results
Source text: A cDNA sequence coding for a human histamine-3 receptor [see International Laid-Open WO00/39164) was cloned with expression vectors pCR2.1, pEF1x (by Invitrogen) and pCI-neo (by Promega). The resulting expression vector was transfected into host cells, HEK293 and CHO-K1 (American Type Culture Collection), according to a cationic lipid process [see Proceedings of the National Academy of Sciences of the United States of America, Vol., 84, p. 7413 (1987)] to obtain histamine-3 receptor expression cells.
A membrane specimen prepared from the cells having expressed a histamine-3 receptor was incubated in an assay buffer (50 mM Tris buffer, 100 mM NaCl, 5 mM MgCl2, pH 7.4) along with a test compound, 20 nM R-methylhistamine (histamine analogue, by Sigma), 10?M GDP (guanine nucleotide diphosphate, by Sigma), 200 pM [^35S]GTPγS (guanine nucleotide triphosphate analogue, by Amersham) and SPA resin (W heat germ agglutinin SPA beads, by Amersham) therein, on a 96-well optiplate (by Packard) at 25° C. for 3 hours, then centrifuged at 3,000 rpm, and the activity was determined with Topcount (by Packard). The non-specific binding was determined in the presence of 10 μM GTPγS (by Sigma), and the 50% inhibitory concentration (IC50) of the test compound to the specific [^35S]GTPγS binding was calculated [see British Journal of Pharmacology, Vol. 135, p. 383 (2002)].

T1 sequence (Q9Y5N1 whole entry): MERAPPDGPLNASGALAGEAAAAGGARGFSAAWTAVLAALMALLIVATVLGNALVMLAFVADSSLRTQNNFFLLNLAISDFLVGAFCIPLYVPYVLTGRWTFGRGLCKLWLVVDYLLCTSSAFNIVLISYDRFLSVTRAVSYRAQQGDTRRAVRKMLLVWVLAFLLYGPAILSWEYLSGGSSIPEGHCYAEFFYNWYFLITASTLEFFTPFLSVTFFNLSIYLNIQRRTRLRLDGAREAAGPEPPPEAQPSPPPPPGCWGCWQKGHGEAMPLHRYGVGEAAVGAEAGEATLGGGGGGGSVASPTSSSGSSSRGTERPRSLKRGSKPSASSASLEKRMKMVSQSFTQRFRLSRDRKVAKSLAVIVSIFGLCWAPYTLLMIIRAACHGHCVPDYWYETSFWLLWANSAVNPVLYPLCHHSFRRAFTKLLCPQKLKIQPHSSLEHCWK

Molecule | IC50 | inhibition of the binding of N-alpha-methylhistamine (histamine analogue) to histamine-H3 receptor
2-[4-(3-piperidin-1-ylpropoxy)-phenyl]-3aH-pyrazolo[1,5-d][1,2,4]triazine [Example 1] | 6.8 nM | strongly inhibited
3-Phenyl-6-[6-(3-piperidin-1-ylpropyl)-pyridin-3-ylmethoxy]-[1,2,4]triazolo[3,4-a]phthalazine [Example 24] | 10 nM | strongly inhibited
c1cc(-c2ccc3nncn3n2)ccc1OCCCN1CCCCC1 [Example 10, 6-[4-(3-piperidin-1-ylpropoxy)phenyl]-[1,2,4]triazolo[4,3-b]pyridazine] | 1.8 nM | strongly inhibited

Now those with a lower IC50, led by results:

IC50 | inhibition of the binding of N-alpha-methylhistamine (histamine analogue) to histamine-H3 receptor | Molecule
1.4 nM | strongly inhibited | Cc1nn2cnnc2cc1-c1ccc(OCCCN2CCCCC2)cc1 [Example 19, 6-Methyl-7-[4-(3-Piperidin-1-ylpropoxy)-phenyl]-[1,2,4]triazolo[4,3-b]pyridazine]
0.23 nM | strongly inhibited | c1cc2c(-c3ccc(OCCCN4CCCCC4)cc3)nn3cnnc3c2cn1 [Example 69]
0.1 nM | strongly inhibited | Cc1nnc2c3cccnc3c(-c3ccc(OCCCN4CCCCC4)cc3)nn12 [Example 30, 3-Methyl-6-[4-(3-piperidin-1-ylpropoxy)-phenyl]-pyrido[3,2-d][1,2,4]triazolo[4,3-b]pyridazine]
